IC50 data for 20 molecules are collected here from BindingDB's records for doi:10.1016/0960-894X(94)00458-R (Tumor Biology Center, 1995).

Assay [1] can be described thus: The activity of cGPK, activated by cGMP, is measured by its ability to transfer phosphate from [gamma-32P]ATP to histone.
In assay [2] the target is cAMP-dependent protein kinase catalytic subunit alpha (Bos taurus, UniProt P00517). The assay is described as follows: PKA assay. The protocol: The activity of PKA, activated by cAMP, is measured by its ability to transfer phosphate from [gamma-32P]ATP to histone.
Assay [3] addresses Myosin light chain kinase, smooth muscle (Gallus gallus, UniProt P11799). The assay is described as follows: MLCK assay. The note with it: pH 7.2; 30 °C. As for the experimental part:
The activity of MLCK is measured by its ability to transfer 32P from [gamma-32P]ATP to myosin light-chain.

The target of assay [4] is Protein kinase C beta type (Rattus norvegicus, UniProt P68403). Kind of assay: MLCK assay.
Chain of Protein kinase C beta type (P68403 whole entry): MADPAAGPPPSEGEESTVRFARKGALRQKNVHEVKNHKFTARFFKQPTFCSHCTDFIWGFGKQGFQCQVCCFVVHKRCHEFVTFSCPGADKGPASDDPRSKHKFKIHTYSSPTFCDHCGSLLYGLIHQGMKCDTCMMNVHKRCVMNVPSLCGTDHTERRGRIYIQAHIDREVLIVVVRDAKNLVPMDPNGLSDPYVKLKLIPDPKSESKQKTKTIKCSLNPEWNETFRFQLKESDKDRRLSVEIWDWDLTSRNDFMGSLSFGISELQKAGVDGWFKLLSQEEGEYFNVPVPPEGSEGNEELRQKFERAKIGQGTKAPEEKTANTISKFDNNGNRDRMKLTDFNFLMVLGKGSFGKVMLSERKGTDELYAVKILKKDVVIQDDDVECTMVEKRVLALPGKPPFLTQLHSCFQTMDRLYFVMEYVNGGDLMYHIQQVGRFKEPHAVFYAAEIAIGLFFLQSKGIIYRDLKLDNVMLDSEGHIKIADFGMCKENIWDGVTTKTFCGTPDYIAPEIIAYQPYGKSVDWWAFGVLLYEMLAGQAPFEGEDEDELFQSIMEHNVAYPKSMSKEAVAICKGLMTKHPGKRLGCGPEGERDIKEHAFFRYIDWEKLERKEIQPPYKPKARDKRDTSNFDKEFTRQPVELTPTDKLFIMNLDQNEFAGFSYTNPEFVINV
The target in assay [5] is Tyrosine-protein phosphatase non-receptor type 2 (Mus musculus). The assay is described as follows: TPK assay. The protocol:
The activity of TPK is measured by its ability to transfer 32P from [gamma-32P]ATP to Poly(Glu,Tyr; 4:l).

Assay [6] addresses T1, cGMP-dependent protein kinase 1 (Bos taurus, UniProt P00516).
T1 sequence (P00516 whole entry): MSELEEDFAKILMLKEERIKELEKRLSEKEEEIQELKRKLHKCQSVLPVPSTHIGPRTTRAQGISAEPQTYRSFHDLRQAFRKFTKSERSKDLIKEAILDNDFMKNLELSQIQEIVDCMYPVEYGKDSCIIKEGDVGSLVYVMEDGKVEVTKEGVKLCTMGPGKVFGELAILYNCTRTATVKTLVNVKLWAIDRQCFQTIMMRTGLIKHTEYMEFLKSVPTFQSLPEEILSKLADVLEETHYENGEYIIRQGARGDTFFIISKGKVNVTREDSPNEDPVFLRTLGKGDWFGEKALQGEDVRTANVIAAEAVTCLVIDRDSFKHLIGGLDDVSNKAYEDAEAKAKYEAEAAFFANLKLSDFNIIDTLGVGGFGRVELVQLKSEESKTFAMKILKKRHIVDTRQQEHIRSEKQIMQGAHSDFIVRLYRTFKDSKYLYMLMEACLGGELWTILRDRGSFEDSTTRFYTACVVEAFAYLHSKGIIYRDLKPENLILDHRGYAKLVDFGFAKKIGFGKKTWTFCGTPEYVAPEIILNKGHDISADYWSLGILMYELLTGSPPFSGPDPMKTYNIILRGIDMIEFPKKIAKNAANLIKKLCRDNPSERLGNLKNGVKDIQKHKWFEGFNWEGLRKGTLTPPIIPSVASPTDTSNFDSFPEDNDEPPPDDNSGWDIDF
The assay is described as follows: cGPK assay. As for the experimental part:
The activity of cGPK, activated by cGMP, is measured by its ability to transfer phosphate from [gamma-32P]ATP to histone.

SMILES strings stand for the structures. Bounds are passed on as bounds.

Chain of Myosin light chain kinase, smooth muscle (P11799 whole entry): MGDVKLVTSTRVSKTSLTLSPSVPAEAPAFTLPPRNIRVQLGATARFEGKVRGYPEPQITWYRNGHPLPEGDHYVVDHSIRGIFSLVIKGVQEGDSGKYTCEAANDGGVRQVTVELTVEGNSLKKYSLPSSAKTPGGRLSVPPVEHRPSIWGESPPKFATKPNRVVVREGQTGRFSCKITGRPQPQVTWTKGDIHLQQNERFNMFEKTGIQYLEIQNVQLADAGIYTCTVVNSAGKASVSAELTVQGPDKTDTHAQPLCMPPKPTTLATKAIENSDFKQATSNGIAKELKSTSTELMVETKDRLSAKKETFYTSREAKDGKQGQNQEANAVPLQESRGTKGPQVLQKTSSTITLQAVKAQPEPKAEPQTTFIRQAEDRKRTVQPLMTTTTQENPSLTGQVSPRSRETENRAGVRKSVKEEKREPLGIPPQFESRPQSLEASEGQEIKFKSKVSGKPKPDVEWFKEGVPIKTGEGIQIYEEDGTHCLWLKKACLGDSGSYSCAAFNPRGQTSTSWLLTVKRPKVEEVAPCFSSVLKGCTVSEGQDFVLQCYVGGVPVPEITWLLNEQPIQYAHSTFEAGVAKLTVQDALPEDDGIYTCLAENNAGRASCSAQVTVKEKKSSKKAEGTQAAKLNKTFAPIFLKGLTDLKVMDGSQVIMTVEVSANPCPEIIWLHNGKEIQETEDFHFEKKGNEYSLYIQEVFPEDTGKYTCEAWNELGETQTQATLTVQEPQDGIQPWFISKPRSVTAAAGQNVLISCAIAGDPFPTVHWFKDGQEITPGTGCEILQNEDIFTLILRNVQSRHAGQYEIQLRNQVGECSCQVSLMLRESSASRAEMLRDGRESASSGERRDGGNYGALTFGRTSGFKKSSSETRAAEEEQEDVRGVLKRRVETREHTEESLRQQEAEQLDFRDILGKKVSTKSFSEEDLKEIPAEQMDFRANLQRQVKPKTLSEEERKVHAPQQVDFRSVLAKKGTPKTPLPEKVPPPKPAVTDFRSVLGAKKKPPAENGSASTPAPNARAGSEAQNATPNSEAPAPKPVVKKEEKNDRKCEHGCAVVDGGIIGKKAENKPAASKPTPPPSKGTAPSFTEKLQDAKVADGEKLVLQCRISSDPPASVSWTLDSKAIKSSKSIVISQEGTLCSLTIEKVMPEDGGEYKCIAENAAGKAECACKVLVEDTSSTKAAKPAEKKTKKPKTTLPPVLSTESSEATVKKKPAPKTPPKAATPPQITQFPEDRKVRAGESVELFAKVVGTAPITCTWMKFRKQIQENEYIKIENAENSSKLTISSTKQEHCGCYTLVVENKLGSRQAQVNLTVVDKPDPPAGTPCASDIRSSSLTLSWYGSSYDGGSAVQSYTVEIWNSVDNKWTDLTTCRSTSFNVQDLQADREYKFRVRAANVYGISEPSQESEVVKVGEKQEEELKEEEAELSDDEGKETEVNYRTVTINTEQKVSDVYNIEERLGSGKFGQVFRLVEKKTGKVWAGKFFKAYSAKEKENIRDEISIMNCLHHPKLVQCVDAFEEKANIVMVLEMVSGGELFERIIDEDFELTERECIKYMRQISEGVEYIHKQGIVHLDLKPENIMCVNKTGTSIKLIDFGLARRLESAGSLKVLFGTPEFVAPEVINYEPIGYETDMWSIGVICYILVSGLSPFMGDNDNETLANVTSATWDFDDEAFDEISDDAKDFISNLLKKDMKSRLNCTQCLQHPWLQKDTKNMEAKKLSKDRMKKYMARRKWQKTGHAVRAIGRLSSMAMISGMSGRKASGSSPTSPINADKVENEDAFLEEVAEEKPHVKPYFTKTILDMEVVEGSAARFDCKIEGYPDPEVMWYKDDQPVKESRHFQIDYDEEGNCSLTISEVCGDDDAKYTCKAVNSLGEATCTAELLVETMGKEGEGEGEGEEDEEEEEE

Regarding `CN(C)CCCn1c2ccccc2c2c3c(c4c5ccccc5[nH]c4c21)C(=O)NC3` [23-[3-(dimethylamino)propyl]-3,13,23-triazahexacyclo[14.7.0.0^{2,10}.0^{4,9}.0^{11,15}.0^{17,22}]tricosa-1(16),2(10),4,6,8,11(15),17(22),18,20-nonaen-12-one], the half-maximal inhibitory concentration (IC50) (commonly the concentration that inhibits the measured activity by half) in assay [1] is 0.39 µM; in assay [2], > 10 µM; in assay [3], 0.39 µM.
Regarding `COc1ccc2c(c1)c1c3c(c4c5ccccc5n(C)c4c1n2CCC#N)C(=O)NC3=O` [3-{7-methoxy-23-methyl-12,14-dioxo-3,13,23-triazahexacyclo[14.7.0.0^{2,10}.0^{4,9}.0^{11,15}.0^{17,22}]tricosa-1(16),2(10),4(9),5,7,11(15),17,19,21-nonaen-3-yl}propanenitrile], the half-inhibitory concentration (IC50) in assay [4] stood at 0.016 µM; in assay [1], 0.2 µM; in assay [3], 0.049 µM.
With `CN(C)CCCn1c2ccc(O)cc2c2c3c(c4c5cc(O)ccc5[nH]c4c21)C(=O)NC3` [23-[3-(dimethylamino)propyl]-7,19-dihydroxy-3,13,23-triazahexacyclo[14.7.0.0^{2,10}.0^{4,9}.0^{11,15}.0^{17,22}]tricosa-1(16),2(10),4,6,8,11(15),17(22),18,20-nonaen-12-one], the IC50 was found to be 0.31 µM in assay [1] and 0.031 µM in assay [3].
In the same order, the values of `COc1ccc2[nH]c3c(c4c(c5c6cc(OC)ccc6n(CCCN(C)C)c35)CNC4=O)c2c1` [23-[3-(dimethylamino)propyl]-7,19-dimethoxy-3,13,23-triazahexacyclo[14.7.0.0^{2,10}.0^{4,9}.0^{11,15}.0^{17,22}]tricosa-1(16),2(10),4,6,8,11(15),17(22),18,20-nonaen-12-one] are 0.22 µM and 0.22 µM.
Take `Cn1c2ccccc2c2c3c(c4c5ccccc5n(CCC#N)c4c21)CNC3=O` [Indolocarbazole deriv.]: the IC50 is > 10 µM in assay [5] and 5.8 µM in assay [1].
On to `Cn1c2ccccc2c2c3c(c4c5ccccc5n(CCC#N)c4c21)C(=O)NC3=O` [3-{23-methyl-12,14-dioxo-3,13,23-triazahexacyclo[14.7.0.0^{2,10}.0^{4,9}.0^{11,15}.0^{17,22}]tricosa-1(16),2(10),4(9),5,7,11(15),17,19,21-nonaen-3-yl}propanenitrile], for which the figures for the IC50 in assay [1] and in assay [2] were 0.055 µM and > 30 µM, respectively.
In the case of `CN(C)CC(O)Cn1c2ccccc2c2c3c(c4c5ccccc5n(C)c4c21)C(=O)NC3` (stereo unspecified) [Indolocarbazole deriv.], the IC50 in assay [5] is > 100 µM; in assay [1], 5.5 µM; in assay [3], 5.5 µM.
Take `CN(C)CC(O)Cn1c2ccccc2c2c3c(c4c5ccccc5n(C)c4c21)C(=O)NC3=O` (stereo unspecified) [23-[3-(dimethylamino)-2-hydroxypropyl]-3-methyl-3,13,23-triazahexacyclo[14.7.0.0^{2,10}.0^{4,9}.0^{11,15}.0^{17,22}]tricosa-1(16),2(10),4,6,8,11(15),17(22),18,20-nonaene-12,14-dione]: the IC50 in assay [1] and in assay [3] was 0.12 µM in each case.
Turning to `Cn1c2ccc(O)cc2c2c3c(c4c5cc(O)ccc5n(CCC#N)c4c21)CNC3=O` [3-{7,19-dihydroxy-23-methyl-14-oxo-3,13,23-triazahexacyclo[14.7.0.0^{2,10}.0^{4,9}.0^{11,15}.0^{17,22}]tricosa-1(16),2(10),4(9),5,7,11(15),17,19,21-nonaen-3-yl}propanenitrile], the 50% inhibitory concentration (IC50) in assay [1] and in assay [3] was 0.03 µM in each case.
Turning to `COc1ccc2c(c1)c1c3c(c4c5ccccc5n(CC(O)CN(C)C)c4c1n2C)CNC3=O` (stereo unspecified) [23-[3-(dimethylamino)-2-hydroxypropyl]-7-methoxy-3-methyl-3,13,23-triazahexacyclo[14.7.0.0^{2,10}.0^{4,9}.0^{11,15}.0^{17,22}]tricosa-1(16),2(10),4,6,8,11(15),17(22),18,20-nonaen-12-one], the IC50 in assay [4] was 0.086 µM; in assay [6], 23 µM; in assay [5] it was > 10 µM; in assay [2], 15 µM; in assay [3], 9.2 µM.
As to `Cn1c2ccccc2c2c3c(c4c5ccccc5n(CCCN)c4c21)CNC3=O` [23-(3-aminopropyl)-3-methyl-3,13,23-triazahexacyclo[14.7.0.0^{2,10}.0^{4,9}.0^{11,15}.0^{17,22}]tricosa-1(16),2(10),4,6,8,11(15),17(22),18,20-nonaen-12-one], the half-maximal inhibitory concentration (IC50) in assay [1] and in assay [3] was 0.018 µM throughout.
In assay [1], `COc1ccc2c(c1)c1c3c(c4c5ccccc5n(C)c4c1n2CCCC#N)C(=O)NC3=O` [3-(9-methoxy-13-methyl-5,7-dioxo-6,7,12,13-tetrahydro-5H-indolo[2,3-a]pyrrolo[3,4-c]carbazol-12-yl)propyl cyanide] had an IC50 of 0.032 µM.
`COc1ccc2c(c1)c1c3c(c4c5ccccc5n(CC(O)CN(C)C)c4c1n2C)C(=O)NC3=O` (stereo unspecified) [23-[3-(dimethylamino)-2-hydroxypropyl]-7-methoxy-3-methyl-3,13,23-triazahexacyclo[14.7.0.0^{2,10}.0^{4,9}.0^{11,15}.0^{17,22}]tricosa-1(16),2(10),4,6,8,11(15),17(22),18,20-nonaene-12,14-dione]: the IC50 was 0.004 µM in assay [4], 4.8 µM in assay [6], 0.51 µM in assay [2] and 0.12 µM in assay [3].
Consider `COc1ccc2c(c1)c1c3c(c4c5ccccc5n(C)c4c1n2CC(O)CN(C)C)C(=O)NC3` (stereo unspecified) [12-(3-dimethylamino-2-hydroxypropyl)-9-methoxy-13-methyl-6,7,12,13-tetrahydro-5H-indolo[2,3-a]pyrrolo[3,4-c]carbazol-5-one], for which half-maximal inhibition in assay [1] (IC50) was put at 9.2 µM.
Consider `COc1ccc2c(c1)c1c3c(c4c5cc(OC)ccc5n(CCC#N)c4c1n2C)CNC3=O` [3-{7,19-dimethoxy-23-methyl-14-oxo-3,13,23-triazahexacyclo[14.7.0.0^{2,10}.0^{4,9}.0^{11,15}.0^{17,22}]tricosa-1(16),2(10),4(9),5,7,11(15),17,19,21-nonaen-3-yl}propanenitrile], for which the values for the 50% inhibitory concentration (IC50) in assay [5], in assay [1] and in assay [3] were > 10 µM, 1.6 µM and 1.6 µM, respectively.
Consider `COc1ccc2c(c1)c1c3c(c4c5ccccc5n(CCC#N)c4c1n2C)C(=O)NC3=O` [3-{19-methoxy-23-methyl-12,14-dioxo-3,13,23-triazahexacyclo[14.7.0.0^{2,10}.0^{4,9}.0^{11,15}.0^{17,22}]tricosa-1(16),2(10),4(9),5,7,11(15),17,19,21-nonaen-3-yl}propanenitrile], for which the IC50 in assay [4] is 0.002 µM; in assay [6], > 3 µM; in assay [5], > 10 µM; in assay [1], 0.049 µM; in assay [2], 0.4 µM; in assay [3] it was 0.2 µM.
Turning to `CN(C)CCCn1c2ccccc2c2c3c(c4c5ccccc5n(C)c4c21)C(=O)NC3` [23-[3-(dimethylamino)propyl]-3-methyl-3,13,23-triazahexacyclo[14.7.0.0^{2,10}.0^{4,9}.0^{11,15}.0^{17,22}]tricosa-1(16),2(10),4,6,8,11(15),17(22),18,20-nonaen-12-one], the IC50 in assay [1] and in assay [3] was 0.25 µM throughout.
Molecule `COc1ccc2c(c1)c1c3c(c4c5ccccc5n(C)c4c1n2CC(O)CN(C)C)C(=O)NC3=O` (stereo unspecified) [13-(3-dimethylamino-2-hydroxypropyl)-3-methoxy-12-methyl-6,7,12,13-tetrahydro-5H-indolo[2,3-a]pyrrolo[3,4-c]carbazole-5,7-dione] showed an IC50 in assay [1] of 0.12 µM.
For `COc1ccc2c(c1)c1c3c(c4c5ccccc5n(CCCC#N)c4c1n2C)C(=O)NC3=O` [4-{19-methoxy-23-methyl-12,14-dioxo-3,13,23-triazahexacyclo[14.7.0.0^{2,10}.0^{4,9}.0^{11,15}.0^{17,22}]tricosa-1(16),2(10),4(9),5,7,11(15),17,19,21-nonaen-3-yl}butanenitrile], the IC50 amounted to 0.005 µM in assay [4], 1 µM in assay [6], 0.2 µM in assay [2] and 0.032 µM in assay [3].
The molecule `COc1ccc2c(c1)c1c3c(c4c5cc(OC)ccc5n(CCC#N)c4c1n2C)C(=O)NC3=O` [3-{7,19-dimethoxy-23-methyl-12,14-dioxo-3,13,23-triazahexacyclo[14.7.0.0^{2,10}.0^{4,9}.0^{11,15}.0^{17,22}]tricosa-1(16),2(10),4(9),5,7,11(15),17,19,21-nonaen-3-yl}propanenitrile] registered a concentration for half-maximal inhibition (IC50) in assay [1] of 0.18 µM.
